Measurements from patent publication US20060069132A1, “Azolecarboxamide herbicides” (priority 2004, published 2006).

How the values were obtained:
[1] = system: barnyardgrass; experiment: Test B pre-/postemergence herbicide test; format: in vivo, Echinochloa crus-galli; conditions: for Barnyardgrass plant response rating: postemergence, visual rating, scale 0 (no effect) to 100 (complete control)
Method in brief: (§1)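 Herbicidal effect was judged by eye on a 0–100 scale after plants stood 13 to 15 days in the greenhouse following pre- or postemergence treatment with surfactant-containing formulations.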

[2] = system: Surinam grass; experiment: Test B pre-/postemergence herbicide test; format: in vivo, Urochloa decumbens; conditions: for Surinam Grass plant response rating: postemergence, visual rating, scale 0 (no effect) to 100 (complete control)
Method in brief: (§2)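 Plants compared with untreated controls 13–15 days post-treatment and given a visual 0–100 injury score. Applications: preemergence to seeds; postemergence at 1- to 4-leaf (2–18 cm); paddy species flooded, 2-leaf stage. Vehicle non-phytotoxic, surfactant included.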

[3] = system: cocklebur; experiment: Test B pre-/postemergence herbicide test; format: in vivo, Xanthium strumarium; conditions: for Cocklebur plant response rating: postemergence, visual rating, scale 0 (no effect) to 100 (complete control)
Method in brief: as §1

[4] = system: corn; experiment: Test B pre-/postemergence herbicide test; format: in vivo, Zea mays; conditions: for Corn plant response rating: postemergence, visual rating, scale 0 (no effect) to 100 (complete control)
Method in brief: as §2

[5] = system: large crabgrass; experiment: Test B pre-/postemergence herbicide test; format: in vivo, Digitaria sanguinalis; conditions: for Crabgrass, Large plant response rating: postemergence, visual rating, scale 0 (no effect) to 100 (complete control)
Method in brief: as §2

[6] = system: giant foxtail; experiment: Test B pre-/postemergence herbicide test; format: in vivo, Setaria faberi; conditions: for Foxtail, Giant plant response rating: postemergence, visual rating, scale 0 (no effect) to 100 (complete control)
Method in brief: as §2

[7] = system: lambsquarters; experiment: Test B pre-/postemergence herbicide test; format: in vivo, Chenopodium album; conditions: for Lambsquarters plant response rating: postemergence, visual rating, scale 0 (no effect) to 100 (complete control)
Method in brief: as §2

[8] = system: morningglory; experiment: Test B pre-/postemergence herbicide test; format: in vivo, Ipomoea coccinea; conditions: for Morningglory plant response rating: postemergence, visual rating, scale 0 (no effect) to 100 (complete control)
Method in brief: as §1

[9] = system: pigweed; experiment: Test B pre-/postemergence herbicide test; format: in vivo, Amaranthus retroflexus; conditions: for Pigweed plant response rating: postemergence, visual rating, scale 0 (no effect) to 100 (complete control)
Method in brief: as §2

[10] = system: rice; experiment: Test B pre-/postemergence herbicide test; format: in vivo, Oryza sativa; conditions: preemergence
Method in brief: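 Greenhouse pot assay with simultaneous preemergence (treated seed) and postemergence (2–18 cm seedlings) applications of surfactant-containing, non-phytotoxic solvent formulations. Response scored visually 13–15 days later on a 0–100 scale, 100 meaning complete control.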

[11] = system: velvetleaf; experiment: Test B pre-/postemergence herbicide test; format: in vivo, Abutilon theophrasti; conditions: for Velvetleaf plant response rating: postemergence, visual rating, scale 0 (no effect) to 100 (complete control)
Method in brief: as §2

[12] = system: blackgrass; experiment: Test B postemergence herbicide test; format: in vivo, Alopecurus myosuroides; conditions: postemergence, visual rating, scale 0 (no effect) to 100 (complete control)
Method in brief: (§3)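 Treated at 2-leaf (paddy) or 1–4-leaf, 2–18 cm (postemergence); greenhouse 13–15 d; visual score vs control, 0 none to 100 complete control; dash = not tested.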

[13] = system: wheat; experiment: Test B postemergence herbicide test; format: in vivo, Triticum aestivum; parameters: key to Wheat plant response rating: 0 = no effect, 100 = complete control; conditions: postemergence, visual rating, scale 0 (no effect) to 100 (complete control)
Method in brief: as §3

[14] = system: wild oat; experiment: Test B postemergence herbicide test; format: in vivo, Avena fatua; conditions: postemergence, visual rating, scale 0 (no effect) to 100 (complete control)
Method in brief: as §3

[15] = system: rice; experiment: Test B flooded paddy test; format: in vivo, Oryza sativa; conditions: 1000 g ai/ha, visual rating, scale 0 to 100 (0 no effect, 100 complete control), 13 to 15 days
Method in brief: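 Formulated test chemicals went onto postemergence plants measuring 2 to 18 cm, at one to four leaves. For the paddy assay, species had reached two leaves. Scoring took place 13–15 days later by eye, relative to untreated plants, using 0 for no effect up to 100 for full control.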

[16] = system: small flower umbrella sedge; experiment: Test B flooded paddy test; format: in vivo, Cyperus difformis; conditions: 1000 g ai/ha, visual rating, scale 0 to 100 (0 no effect, 100 complete control), 13 to 15 days
Method in brief: as §3

[17] = system: ducksalad; experiment: Test B flooded paddy test; format: in vivo, Heteranthera limosa; conditions: 1000 g ai/ha, visual rating, scale 0 to 100 (0 no effect, 100 complete control), 13 to 15 days
Method in brief: as §3

[18] = system: barnyardgrass; experiment: Test B flooded paddy test; format: in vivo, Echinochloa crus-galli; conditions: 1000 g ai/ha, visual rating, scale 0 to 100 (0 no effect, 100 complete control), 13 to 15 days
Method in brief: as §3

[19] = system: rice; experiment: Test C flooded paddy test; format: in vivo, Oryza sativa
Method in brief: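 Plants were grown to the 1- to 4-leaf stage (2–18 cm) and then treated postemergence, or grown to the 2-leaf stage for the flooded paddy test. They were held in a greenhouse for 12 to 14 days and then scored by eye against controls, where 0 is no effect and 100 is complete control.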

[20] = system: smallflower umbrella sedge; experiment: Test C flooded paddy test; format: in vivo, Cyperus difformis
[21] = system: ducksalad; experiment: Test C flooded paddy test; format: in vivo, Heteranthera limosa
[22] = system: barnyardgrass; experiment: Test C flooded paddy test; format: in vivo, Echinochloa crus-galli
Method in brief: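 After a postemergence application at 1 to 4 leaves (plants 2–18 cm high), or at 2 leaves for barnyardgrass in flooded paddy, plants stayed in the greenhouse for 12 to 14 days. Damage was then judged visually relative to control plants, with 100 indicating complete control.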

[23] = 125 g ai/ha, 0 = no effect, 100 = complete control, preemergence
[24] = 500 g ai/ha, visual rating 0-100, 0 no effect, 100 complete control, preemergence
[25] = 62 g ai/ha, scale 0 to 100 (0 no effect, 100 complete control)
[26] = 125 g ai/ha, scale 0 to 100 (0 no effect, 100 complete control)
[27] = 250 g ai/ha, scale of 0 to 100, 0 is no effect, 100 is complete control
[28] = 500 g ai/ha, visual rating after 12 to 14 days, scale 0 to 100 (0 no effect, 100 complete control)

CCNC(=O)c1cccc(NC(=O)c2cn(C(C)(C)C)nc2CC)c1 [Compound 181]
Barnyardgrass plant response rating (0 to 100 scale) [1, 23]: 30
Plant response rating, Barnyardgrass [1, 24]: 90
Barnyardgrass plant response rating ([1]; 125 g ai/ha): 0
Barnyardgrass plant response rating ([1]; 500 g ai/ha): 10
Surinam Grass plant response rating (0 to 100 scale) [2, 23]: 30
Plant response rating, Surinam Grass [2, 24]: 70
Surinam Grass plant response rating ([2]; 125 g ai/ha): 20
Surinam Grass plant response rating ([2]; 500 g ai/ha): 20
Cocklebur plant response rating (0 to 100 scale) [3, 23]: 10
Plant response rating, Cocklebur [3, 24]: 20
Cocklebur plant response rating ([3]; 125 g ai/ha): 20
Cocklebur plant response rating ([3]; 500 g ai/ha): 70
Corn plant response rating (0 to 100 scale) [4, 23]: 0
Plant response rating, Corn [4, 24]: 40
Corn plant response rating ([4]; 125 g ai/ha): 20
Corn plant response rating ([4]; 500 g ai/ha): 20
Crabgrass, Large plant response rating (0 to 100 scale) [5, 23]: 50
Plant response rating, Crabgrass, Large [5, 24]: 100
Crabgrass, Large plant response rating ([5]; 125 g ai/ha): 10
Crabgrass, Large plant response rating ([5]; 500 g ai/ha): 20
Foxtail, Giant plant response rating (0 to 100 scale) [6, 23]: 20
Plant response rating, Foxtail, Giant [6, 24]: 100
Foxtail, Giant plant response rating ([6]; 125 g ai/ha): 20
Foxtail, Giant plant response rating ([6]; 500 g ai/ha): 20
Lambsquarters plant response rating (0 to 100 scale) [7, 23]: 50
Plant response rating, Lambsquarters [7, 24]: 100
Lambsquarters plant response rating ([7]; 125 g ai/ha): 70
Lambsquarters plant response rating ([7]; 500 g ai/ha): 90
Morningglory plant response rating (0 to 100 scale) [8, 23]: 0
Plant response rating, Morningglory [8, 24]: 20
Morningglory plant response rating ([8]; 125 g ai/ha): 20
Morningglory plant response rating ([8]; 500 g ai/ha): 20
Pigweed plant response rating (0 to 100 scale) [9, 23]: 30
Plant response rating, Pigweed [9, 24]: 100
Pigweed plant response rating ([9]; 125 g ai/ha): 40
Pigweed plant response rating ([9]; 500 g ai/ha): 90
Rice plant response rating (0 to 100 scale) ([10]; 125 g ai/ha, 0 = no effect, 100 = complete control): 40
Plant response rating, Rice ([10]; 500 g ai/ha, visual rating 0-100, 0 no effect, 100 complete control): 70
Velvetleaf plant response rating (0 to 100 scale) [11, 23]: 0
Plant response rating, Velvetleaf [11, 24]: 10
Velvetleaf plant response rating ([11]; 125 g ai/ha): 10
Velvetleaf plant response rating ([11]; 500 g ai/ha): 20
Blackgrass plant response rating ([12]; 125 g ai/ha): 0
Blackgrass plant response rating ([12]; 500 g ai/ha): 10
Wheat plant response rating ([13]; 125 g ai/ha): 0
Wheat plant response rating ([13]; 500 g ai/ha): 0
Oat, Wild plant response rating ([14]; 125 g ai/ha): 20
Oat, Wild plant response rating ([14]; 500 g ai/ha): 30
Rice plant response rating [15]: 80
Sedge, Umbrella plant response rating [16]: 80
Ducksalad plant response rating [17]: 90
Barnyardgrass plant response rating [18]: 80
Rice plant response rating [19, 25]: 0
Rice plant response rating [19, 26]: 0
Rice plant response rating [19, 27]: 0
Plant response rating, Rice [19, 28]: 0
Sedge, Umbrella plant response rating [20, 25]: 10
Sedge, Umbrella plant response rating [20, 26]: 20
Sedge, Umbrella plant response rating [20, 27]: 80
Plant response rating, Sedge, Umbrella [20, 28]: 85
Ducksalad plant response rating [21, 25]: 0
Ducksalad plant response rating [21, 26]: 0
Ducksalad plant response rating [21, 27]: 0
Plant response rating, Ducksalad [21, 28]: 80
Barnyardgrass plant response rating [22, 25]: 0
Barnyardgrass plant response rating ([22]; 125 g ai/ha, scale of 0 to 100, 0 is no effect, 100 is complete control): 0
Barnyardgrass plant response rating [22, 27]: 0
Plant response rating, Barnyardgrass [22, 28]: 0
